Source: patent US20120035175A1, “Novel salts as Anti-Inflammatory, Immunomodulatory and Anti-Proliferatory Agents” (4SC AG, priority 2010, published 2012)
Like-named read-outs stand apart in the source and are kept apart here.

Columns and labels:
[1] = Dynamic vapor sorption (water uptake); format: physicochemical; conditions: for % water uptake at 85% r.h.: about 85% r.h.
Source text: DVS (SMS): Surface Measurement Systems Ltd. DVS-1 water vapour sorption analyzer. The sample is placed on a platinum sample pan and allowed to equilibrate at a given relative humidity (r.h.), usually 50% r.h. Then, a pre-defined humidity program was started with a scanning rate of 5% r.h. change per hour. First step: from 50% r.h. to 0% r.h. (in case of a possibly hydrate as starting material 50 to 95% r.h.), second step: from 0% to 95% r.h. (in case of a possibly hydrate as starting material 95 to 0% r.h.)

[2] = Aqueous solubility and pH of the saturated solution; format: physicochemical
Description: Solubility: Solubility was determined by a stepwise addition of 0.05 mL portions of solvent to a suspension of 10 mg of sample in 0.05 mL of solvent.
The aqueous solubility of the respective compound was determined by HPLC, and the pH of the resulting saturated solution was measured. For each compound tested, a suspension was prepared and equilibrated for 24 hours at 25° C. The suspension was filtered, the filtrate was diluted and analysed by HPLC.

recombinant murine DHODH = molecular target: T1, recombinant murine DHODH (Mus musculus, UniProt O35435); experiment: Inhibition assay of DHODH activity (murine enzyme); format: biochemical; conditions: class symbols, key in nM
T1 construct: Prof; M. Löffler, Marburg, Germany (gift)
Description: (§1) The standard assay mixture contained 50 μM decyclo ubichinone, 100 μM dihydroorotate, 60 μM 2,6-dichloroindophenol, as well as 20 mU DHODH. The volume activity of the recombinant enzyme used was 30 U/ml. Measurements were conducted in 50 mM TrisHCl (150 mM KCl, 0.1% Triton X-100, pH 8.0) at 30° C. in a final volume of 1 ml. The components were mixed, and the reaction was started by adding dihydroorotate. The course of reaction was followed by spectrophotometrically measuring the decrease in absorption at 600 nm for […].
(§2) Inhibitory studies were conducted in a standard assay with additional variable amounts of inhibitor. […] These investigations were carried out with recombinant human as well as with recombinant murine DHODH provided by Prof. M. Löffler, Marburg, Germany [M. Löffler, Chem. Biol. Interact.

recombinant human DHODH = molecular target: T2, recombinant human DHODH (Homo sapiens, UniProt Q02127); experiment: Inhibition assay of DHODH activity (human enzyme); format: biochemical
T2 construct: Prof; M. Löffler, Marburg, Germany (gift)
Description: as §1, §2

[3] = Long-term stability, 18 months storage, HPLC; format: physicochemical
Description: HPLC: HPLC was performed with a Dionex UltiMate® 3000 liquid chromatograph comprising a solvent Rack, a vacuum degasser, a binary pump (mikro), a static mixer (500 μl), an autosampler, a 25 μl sample loop, a 100 μl syringe, a column oven and a DAD detector (semimicro measuring cell), which was set up for UV analysis. Data analysis was done with Chromeleon® 6.80 SP3. Compounds were separated at 30° C. on a Phenomenex Onyx™ Monolithic C18 50×2 mm column. The injection volume was 2 μl and the detection wavelength was 305 nm. As mobile phase, a gradient of 0.1% formic acid in HPLC grade water/acetonitrile was used, starting at a concentration of 5% acetonitrile. The starting concentration was held for 1 minute, then the gradient was ramped linearly to 95% acetonitrile over the course of 2 min, held for 0.7 min at 95% acetonitrile, after which it was returned to 5% acetonitrile within 0.1 min and kept constant for 0.7 min to re-equilibrate the column. The mobile phase flow rate was 1.5 ml/min.
The compounds were stored for 18 months at ambient conditions (20-25° C., 30-60% relative humidity) and subsequently analysed by HPLC for purity.

T1 sequence (O35435 whole entry): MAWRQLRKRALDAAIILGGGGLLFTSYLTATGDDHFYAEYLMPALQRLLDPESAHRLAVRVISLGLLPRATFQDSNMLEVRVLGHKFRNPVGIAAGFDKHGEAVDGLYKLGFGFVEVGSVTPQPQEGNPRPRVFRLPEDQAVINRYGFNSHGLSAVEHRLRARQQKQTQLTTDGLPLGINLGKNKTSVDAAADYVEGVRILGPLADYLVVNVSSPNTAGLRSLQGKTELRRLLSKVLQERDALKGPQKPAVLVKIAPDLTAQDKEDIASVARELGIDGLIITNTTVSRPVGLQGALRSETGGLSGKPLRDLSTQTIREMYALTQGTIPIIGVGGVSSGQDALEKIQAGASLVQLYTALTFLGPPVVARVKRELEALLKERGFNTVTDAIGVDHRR
T2 sequence (Q02127 whole entry): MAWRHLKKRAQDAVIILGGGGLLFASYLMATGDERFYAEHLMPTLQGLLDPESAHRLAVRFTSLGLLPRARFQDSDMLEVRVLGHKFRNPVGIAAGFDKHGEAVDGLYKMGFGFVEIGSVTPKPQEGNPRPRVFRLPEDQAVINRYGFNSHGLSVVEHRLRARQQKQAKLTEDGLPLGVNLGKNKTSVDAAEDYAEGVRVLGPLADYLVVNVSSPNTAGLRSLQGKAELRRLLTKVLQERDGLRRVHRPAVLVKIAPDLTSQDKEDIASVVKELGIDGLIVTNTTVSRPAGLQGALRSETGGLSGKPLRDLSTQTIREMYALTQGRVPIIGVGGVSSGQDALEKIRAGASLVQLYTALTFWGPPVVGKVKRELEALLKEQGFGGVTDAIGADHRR

SMILES | IC50 (recombinant murine DHODH) | also measured
[O-][n+]1ccccc1[S-].[O-][n+]1ccccc1[S-].[Zn+2] [Zinc salt] |  | % water uptake at 95% r.h. [1]: 5.5%; % water uptake at 85% r.h. [1]: 4%; Solubility ([2]; aqueous, suspension equilibrated for 24 hours at 25° C.): 950 µg/mL; pH ([2]; pH of the resulting saturated solution): 6.3
O=C(O)C1=C(C(=O)Nc2ccc(-c3ccccc3Cl)cc2)CSC1 [Compound 41, 4-((2′-chloro-[1,1′-biphenyl]-4-yl)carbamoyl)-2,5-dihydrothiophene-3-carboxylic acid] | > 1500 nM | 
O=C(O)C1=C(C(=O)Nc2c(F)cc(-c3ccccc3F)cc2F)CCC1 [Compound 66, 2-((2′,3,5-trifluoro-[1,1′-biphenyl]-4-yl)carbamoyl)cyclopent-1-enecarboxylic acid] | 800 to 1500 nM | 
COc1ccc(-c2cc(F)c(NC(=O)C3=C(C(=O)O)CCC3)c(F)c2)c(OC)c1 [Compound 67, 2-((3,5-difluoro-2′,4′-dimethoxy-[1,1′-biphenyl]-4-yl)carbamoyl)cyclopent-1-enecarboxylic acid] | > 1500 nM | 
O=C(O)C1=C(C(=O)Nc2ccc(Oc3ccccc3)cc2)CCC1 [Compound 50, 2-((4-phenoxyphenyl)carbamoyl)cyclopent-1-enecarboxylic acid] | < 800 nM | 
Cc1cccc(Sc2ccc(NC(=O)C3=C(C(=O)O)CCC3)cc2)c1 [Compound 42, 2-((4-(m-tolylthio)phenyl)carbamoyl)cyclopent-1-enecarboxylic acid] | < 800 nM | 
CCOc1cccc(-c2cc(F)c(NC(=O)C3=C(C(=O)O)CCC3)c(F)c2)c1 [Compound 63, 2-((3′-ethoxy-3,5-difluoro-[1,1′-biphenyl]-4-yl)carbamoyl)cyclopent-1-enecarboxylic acid] | 800 to 1500 nM | 
COc1cccc(-c2ccc(NC(=O)C3=C(C(=O)O)CCC3)c(F)c2)c1.N=C(N)NCCCC(N)C(=O)O [L-Arginine salt] |  | % water uptake at 95% r.h. [1]: >12%; % water uptake at 95% r.h. ([1]; listed as arginine salt): > 12%; % water uptake at 85% r.h. [1]: 1.7%
COc1cccc(-c2ccc(NC(=O)C3=C(C(=O)[O-])CCC3)c(F)c2)c1.[K+] [K salt] |  | % water uptake at 95% r.h. [1]: Ca. 1%; % water uptake at 85% r.h. [1]: Ca. 0.5%
COc1ccccc1-c1ccc(NC(=O)C2=C(C(=O)O)CCC2)c(C)c1 [Compound 57, 2-((2′-methoxy-3-methyl-[1,1′-biphenyl]-4-yl)carbamoyl)cyclopent-1-enecarboxylic acid] | 800 to 1500 nM | 
COc1ccccc1-c1ccc(NC(=O)C2=C(C(=O)O)CCC2)cc1Cl [Compound 54, 2-((2-chloro-2′-methoxy-[1,1′-biphenyl]-4-yl)carbamoyl)cyclopent-1-enecarboxylic acid] | 800 to 1500 nM | 
CCOc1ccccc1-c1cc(F)c(NC(=O)C2=C(C(=O)O)CCC2)c(F)c1 [Compound 62, 2-((2′-ethoxy-3,5-difluoro-[1,1′-biphenyl]-4-yl)carbamoyl)cyclopent-1-enecarboxylic acid] | 800 to 1500 nM | 
COc1ccccc1-c1ccc(NC(=O)C2=C(C(=O)O)CCC2)c(Cl)c1 [Compound 53, 2-((3-chloro-2′-methoxy-[1,1′-biphenyl]-4-yl)carbamoyl)cyclopent-1-enecarboxylic acid] | 800 to 1500 nM | 
O=C(O)C1=C(C(=O)Nc2cc(Br)c(OCc3cc(F)ccc3F)c(Br)c2)CCC1 [Compound 24, 2-((3,5-dibromo-4-((2,5-difluorobenzyl)oxy)phenyl)carbamoyl)cyclopent-1-enecarboxylic acid] | 800 to 1500 nM | 
O=C(O)C1=C(C(=O)Nc2ccc(OCc3c(F)cccc3Cl)c(Cl)c2)CCC1 [Compound 69, 2-((3-chloro-4-((2-chloro-6-fluorobenzyl)oxy)phenyl)carbamoyl)cyclopent-1-enecarboxylic acid] | < 800 nM | IC50 (recombinant human DHODH): < 800 nM
COc1ccccc1-c1cc(Cl)c(NC(=O)C2=C(C(=O)O)CCC2)c(Cl)c1 [Compound 58, 2-((3,5-dichloro-2′-methoxy-[1,1′-biphenyl]-4-yl)carbamoyl)cyclopent-1-enecarboxylic acid] | 800 to 1500 nM | 
O=C(O)C1=C(C(=O)Nc2cc(Br)c(OCc3ccccc3)c(Br)c2)CSC1 [Compound 29, 4-((4-(benzyloxy)-3,5-dibromophenyl)carbamoyl)-2,5-dihydrothiophene-3-carboxylic acid] | > 1500 nM | 
O=C(O)C1=C(C(=O)Nc2ccc(OCc3ccccc3F)c(Cl)c2)CCC1 [Compound 74, 2-((3-chloro-4-((2-fluorobenzyl)oxy)phenyl)carbamoyl)cyclopent-1-enecarboxylic acid] | < 800 nM | 
CCOc1cccc(-c2ccc(NC(=O)C3=C(C(=O)O)CCC3)c(F)c2)c1 [Compound 46, 2-((3′-ethoxy-3-fluoro-[1,1′-biphenyl]-4-yl)carbamoyl)cyclopent-1-enecarboxylic acid] | > 1500 nM | 
O=C(O)C1=C(C(=O)Nc2cc(Br)c(OCc3ccc(F)c(F)c3)c(Br)c2)CCC1 [Compound 25, 2-((3,5-dibromo-4-((3,4-difluorobenzyl)oxy)phenyl)carbamoyl)cyclopent-1-enecarboxylic acid] |  | IC50 (recombinant human DHODH; recombinant human DHODH, class symbols, key in nM, read-out: human IC50-Value): < 800 nM
O=C(O)C1=C(C(=O)Nc2ccc(OCc3ccccc3)c(Cl)c2)CCC1 [Compound 72, 2-((4-(benzyloxy)-3-chlorophenyl)carbamoyl)cyclopent-1-enecarboxylic acid] | 800 to 1500 nM | 
O=C(O)C1=C(C(=O)Nc2ccc(-c3cccc(F)c3)cc2F)CCC1 [Compound 27, 2-((3,3′-difluoro-[1,1′-biphenyl]-4-yl)carbamoyl)cyclopent-1-enecarboxylic acid] | > 1500 nM | 
CCNCC.COc1cccc(-c2ccc(NC(=O)C3=C(C(=O)O)CCC3)c(F)c2)c1 [Diethylamine (DEA) salt] |  | Peak area ([3]; HPLC after 18 months storage at ambient conditions (20-25° C., 30-60% relative humidity)): >99%; Occurrence of hydrolysis product in HPLC after 18 months storage ([3]; ambient conditions (20-25° C., 30-60% relative humidity), LOD for hydrolysis product: 0.1 μg/ml): Below LOD*; % water uptake at 95% r.h. [1]: 0.5%; % water uptake at 85% r.h. [1]: 0.2%
COc1ccc(-c2ccc(NC(=O)C3=C(C(=O)O)CCC3)cc2Cl)cc1 [Compound 19, 2-((2-chloro-4′-methoxy-[1,1′-biphenyl]-4-yl)carbamoyl)cyclopent-1-enecarboxylic acid] | < 800 nM | 
COc1ccccc1-c1c(F)c(F)c(NC(=O)C2=C(C(=O)O)CCC2)c(F)c1F [Compound 56, 2-((2,3,5,6-tetrafluoro-2′-methoxy-[1,1′-biphenyl]-4-yl)carbamoyl)cyclopent-1-enecarboxylic acid] | < 800 nM | 
COc1cccc(-c2ccc(NC(=O)C3=C(C(=O)[O-])CCC3)c(F)c2)c1.COc1cccc(-c2ccc(NC(=O)C3=C(C(=O)[O-])CCC3)c(F)c2)c1.[Mg+2] [Mg salt] |  | % water uptake at 95% r.h. [1]: Ca. 10%; % water uptake at 85% r.h. [1]: Ca. 5%
O=C(O)C1=C(C(=O)Nc2ccc(OCc3ccccc3C(F)(F)F)c(Cl)c2)CCC1 [Compound 68, 2-((3-chloro-4-((2-(trifluoromethyl)benzyl)oxy)phenyl)carbamoyl)cyclopent-1-enecarboxylic acid] | > 1500 nM | 
O=C(O)C1=C(C(=O)Nc2ccc(-c3ccccc3F)cc2)CCC1 [Compound 13, 2-((2′-fluoro-[1,1′-biphenyl]-4-yl)carbamoyl)cyclopent-1-enecarboxylic acid] | > 1500 nM | 
COc1cccc(-c2ccc(NC(=O)C3=C(C(=O)[O-])CCC3)c(F)c2)c1.[Na+] [Na salt] |  | % water uptake at 95% r.h. [1]: Ca. 7.5%; % water uptake at 85% r.h. [1]: Ca. 5%
O=C(O)C1=C(C(=O)Nc2ccc(-c3ccccc3Cl)cc2)CCC1 [Compound 14, 2-((2′-chloro-[1,1′-biphenyl]-4-yl)carbamoyl)cyclopent-1-enecarboxylic acid] | > 1500 nM | 
